The text below walks through data of ChEMBL document CHEMBL5346910, “N-sulfonyl peptide-hybrids as a new class of dengue virus protease inhibitors” (Eur J Med Chem, 2023).

The target in data set [1] is Genome polyprotein (dengue virus type 2) (UniProt P29990). Nature of the data set: Inhibition of DENV-2 NS2B-NS3 protease at 50 uM by biochemical enzymatic assay relative to control.
Data set [2] in a line: Cytotoxicity against human HeLa cells by CellTiter-Blue assay. It counts as toxicity, cell-based. (In general: Resazurin is reduced to fluorescent resorufin, in cell work by metabolically active cells.)
In data set [3] the target is T1, Genome polyprotein (dengue virus type 2, UniProt P29990). Nature of the data set: Inhibition of DENV-2 NS2B-NS3 protease by biochemical enzymatic assay.
For data set [4], the target named is T2, Trypsin (Homo sapiens, UniProt P07477+P07478+P35030). The data set is described as follows: Inhibition of trypsin (unknown origin) at 50 uM by biochemical assay relative to control. The class given is protein assay.
The target of data set [5] is Prothrombin (Homo sapiens) (UniProt P00734). Nature of the data set: Inhibition of Thrombin (unknown origin) at 25 uM by biochemical assay relative to control.
For data set [6], the target named is Genome polyprotein (West Nile virus) (UniProt P06935). Nature of the data set: Inhibition of West Nile virus NS2B-NS3 protease at 50 uM by biochemical enzymatic assay relative to control.
Data set [7] has as its target T1, Genome polyprotein. Nature of the data set: Competitive inhibition of DENV-2 NS2B-NS3 protease assessed as inhibition constant by Cheng-Prusoff plot analysis.
Data set [8] concerns the target T3, Genome polyprotein (West Nile virus, UniProt P06935). Nature of the data set: Inhibition of West Nile virus NS2B-NS3 protease by biochemical enzymatic assay.
The target in data set [9] is T3, Genome polyprotein. The data set is described as follows: Inhibition of West Nile virus NS2B-NS3 protease assessed as inhibition constant.
Data set [10] in a line: Stability of the compound assessed as alpha-chymotrypsin (unknown origin) mediated compound degradation incubated for 60 mins by UV-based HPLC analysis. It counts as ADME. The settings on record: human, 1 h.
The target in data set [11] is T2, Trypsin. The data set is described as follows: Stability of the compound assessed as trypsin (unknown origin) mediated compound degradation incubated for 60 mins by UV-based HPLC analysis. The class given is ADME, protein assay. The following applies: 1 h.
Data set [12] is described as follows: Metabolic stability in rat liver microsomes assessed as parent compound remaining measured for 120 mins by UV-based HPLC analysis. The class given is ADME, Microsome. The following applies: read-out: Stability. (In general: Microsomes from liver hold many membrane-bound enzymes, among them those of drug oxidation.)
A short description of data set [13]: Metabolic stability in rat liver microsomes measured for 120 mins by UV-based HPLC analysis. The class given is ADME, Microsome. The settings on record: 2 h.

Where only a bound is given, the exact number is not on record here.

Chain of Genome polyprotein (West Nile virus) (P06935 whole entry): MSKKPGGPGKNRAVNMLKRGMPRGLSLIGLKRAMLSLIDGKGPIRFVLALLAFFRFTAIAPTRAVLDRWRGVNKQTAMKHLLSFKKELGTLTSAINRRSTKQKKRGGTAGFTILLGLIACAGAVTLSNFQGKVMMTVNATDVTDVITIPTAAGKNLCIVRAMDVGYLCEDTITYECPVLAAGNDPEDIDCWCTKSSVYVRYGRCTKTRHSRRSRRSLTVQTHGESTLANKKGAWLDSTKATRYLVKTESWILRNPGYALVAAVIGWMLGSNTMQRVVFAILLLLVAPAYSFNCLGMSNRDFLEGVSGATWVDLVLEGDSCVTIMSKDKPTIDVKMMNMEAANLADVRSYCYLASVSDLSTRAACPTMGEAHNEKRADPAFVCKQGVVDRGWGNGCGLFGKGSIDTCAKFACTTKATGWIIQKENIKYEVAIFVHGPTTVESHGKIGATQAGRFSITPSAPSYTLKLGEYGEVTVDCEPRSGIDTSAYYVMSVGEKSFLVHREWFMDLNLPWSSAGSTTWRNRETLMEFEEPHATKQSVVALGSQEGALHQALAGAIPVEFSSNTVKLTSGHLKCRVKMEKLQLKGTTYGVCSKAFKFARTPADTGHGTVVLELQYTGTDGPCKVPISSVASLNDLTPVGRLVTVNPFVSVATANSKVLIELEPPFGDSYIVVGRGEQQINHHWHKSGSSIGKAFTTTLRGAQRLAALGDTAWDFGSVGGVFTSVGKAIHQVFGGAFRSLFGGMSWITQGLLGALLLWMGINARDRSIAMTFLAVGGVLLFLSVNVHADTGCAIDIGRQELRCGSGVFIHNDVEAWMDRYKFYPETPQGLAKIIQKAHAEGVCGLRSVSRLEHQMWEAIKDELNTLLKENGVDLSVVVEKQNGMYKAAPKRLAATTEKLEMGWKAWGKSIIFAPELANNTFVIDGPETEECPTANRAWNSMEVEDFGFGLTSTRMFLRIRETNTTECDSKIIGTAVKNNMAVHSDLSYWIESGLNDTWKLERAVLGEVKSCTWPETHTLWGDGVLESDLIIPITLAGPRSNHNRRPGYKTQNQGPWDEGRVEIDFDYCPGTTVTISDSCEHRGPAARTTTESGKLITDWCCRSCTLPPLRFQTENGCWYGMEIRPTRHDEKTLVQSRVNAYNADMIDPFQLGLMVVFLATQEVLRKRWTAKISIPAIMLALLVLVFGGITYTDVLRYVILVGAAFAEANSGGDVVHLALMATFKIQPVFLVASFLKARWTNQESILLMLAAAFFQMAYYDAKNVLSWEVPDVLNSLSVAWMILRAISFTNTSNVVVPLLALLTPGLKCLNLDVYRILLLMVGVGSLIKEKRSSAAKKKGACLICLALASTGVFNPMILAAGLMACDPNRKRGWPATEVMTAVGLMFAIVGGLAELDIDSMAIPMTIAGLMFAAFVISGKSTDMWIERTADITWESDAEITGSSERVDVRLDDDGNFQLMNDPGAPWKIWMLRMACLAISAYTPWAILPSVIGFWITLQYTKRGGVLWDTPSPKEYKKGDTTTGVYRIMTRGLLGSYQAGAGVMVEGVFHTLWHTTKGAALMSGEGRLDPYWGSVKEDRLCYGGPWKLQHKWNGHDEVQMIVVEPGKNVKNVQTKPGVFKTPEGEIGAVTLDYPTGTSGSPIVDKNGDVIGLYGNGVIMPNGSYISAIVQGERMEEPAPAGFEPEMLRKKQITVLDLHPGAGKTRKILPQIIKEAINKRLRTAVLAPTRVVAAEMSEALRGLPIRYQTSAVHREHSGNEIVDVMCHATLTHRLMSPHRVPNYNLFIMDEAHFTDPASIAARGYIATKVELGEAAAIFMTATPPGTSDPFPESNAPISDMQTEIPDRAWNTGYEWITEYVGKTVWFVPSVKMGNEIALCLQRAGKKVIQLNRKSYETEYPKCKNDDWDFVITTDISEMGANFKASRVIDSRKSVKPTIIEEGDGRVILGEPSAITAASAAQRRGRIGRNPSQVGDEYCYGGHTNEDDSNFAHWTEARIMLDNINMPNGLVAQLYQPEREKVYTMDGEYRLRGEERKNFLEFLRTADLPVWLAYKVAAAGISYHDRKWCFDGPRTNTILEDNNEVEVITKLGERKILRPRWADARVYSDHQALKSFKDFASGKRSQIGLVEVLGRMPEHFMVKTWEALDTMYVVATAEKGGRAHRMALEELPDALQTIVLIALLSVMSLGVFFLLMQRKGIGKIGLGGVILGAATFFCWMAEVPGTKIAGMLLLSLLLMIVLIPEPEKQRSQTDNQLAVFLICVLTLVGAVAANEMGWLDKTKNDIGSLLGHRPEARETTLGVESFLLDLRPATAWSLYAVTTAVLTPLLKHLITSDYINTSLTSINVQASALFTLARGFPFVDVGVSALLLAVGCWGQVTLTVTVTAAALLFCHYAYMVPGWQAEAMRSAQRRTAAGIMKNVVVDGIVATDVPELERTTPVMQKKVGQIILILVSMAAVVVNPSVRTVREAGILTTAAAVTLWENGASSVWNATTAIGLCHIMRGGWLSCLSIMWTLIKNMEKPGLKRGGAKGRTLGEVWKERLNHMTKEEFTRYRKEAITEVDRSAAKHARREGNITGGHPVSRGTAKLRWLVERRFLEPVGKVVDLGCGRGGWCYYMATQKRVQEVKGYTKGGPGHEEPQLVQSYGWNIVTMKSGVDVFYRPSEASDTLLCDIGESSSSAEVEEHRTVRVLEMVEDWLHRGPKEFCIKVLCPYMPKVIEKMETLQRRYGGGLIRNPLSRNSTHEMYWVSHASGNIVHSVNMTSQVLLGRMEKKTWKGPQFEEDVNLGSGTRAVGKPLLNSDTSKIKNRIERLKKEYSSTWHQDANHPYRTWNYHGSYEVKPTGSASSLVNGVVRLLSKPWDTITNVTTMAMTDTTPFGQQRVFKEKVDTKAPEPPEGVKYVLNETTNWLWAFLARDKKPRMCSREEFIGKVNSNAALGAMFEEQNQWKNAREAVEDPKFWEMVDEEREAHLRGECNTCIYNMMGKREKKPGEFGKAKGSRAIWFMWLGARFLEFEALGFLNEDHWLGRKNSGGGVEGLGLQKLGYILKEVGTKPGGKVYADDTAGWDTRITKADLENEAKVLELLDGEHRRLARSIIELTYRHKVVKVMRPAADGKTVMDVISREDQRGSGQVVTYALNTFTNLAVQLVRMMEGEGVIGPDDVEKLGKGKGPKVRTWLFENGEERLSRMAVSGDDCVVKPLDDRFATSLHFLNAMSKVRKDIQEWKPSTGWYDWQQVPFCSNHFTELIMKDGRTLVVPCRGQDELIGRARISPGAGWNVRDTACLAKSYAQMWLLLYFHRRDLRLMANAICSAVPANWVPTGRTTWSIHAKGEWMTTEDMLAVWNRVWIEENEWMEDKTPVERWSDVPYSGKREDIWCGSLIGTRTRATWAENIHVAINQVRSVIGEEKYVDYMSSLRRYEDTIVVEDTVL
T3 sequence (P06935 1371-1501 limits assumed): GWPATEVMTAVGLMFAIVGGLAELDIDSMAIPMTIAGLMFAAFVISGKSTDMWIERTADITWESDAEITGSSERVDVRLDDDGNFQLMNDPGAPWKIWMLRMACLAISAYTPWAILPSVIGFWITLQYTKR
T3 sequence (P06935 1502-2120 limits assumed): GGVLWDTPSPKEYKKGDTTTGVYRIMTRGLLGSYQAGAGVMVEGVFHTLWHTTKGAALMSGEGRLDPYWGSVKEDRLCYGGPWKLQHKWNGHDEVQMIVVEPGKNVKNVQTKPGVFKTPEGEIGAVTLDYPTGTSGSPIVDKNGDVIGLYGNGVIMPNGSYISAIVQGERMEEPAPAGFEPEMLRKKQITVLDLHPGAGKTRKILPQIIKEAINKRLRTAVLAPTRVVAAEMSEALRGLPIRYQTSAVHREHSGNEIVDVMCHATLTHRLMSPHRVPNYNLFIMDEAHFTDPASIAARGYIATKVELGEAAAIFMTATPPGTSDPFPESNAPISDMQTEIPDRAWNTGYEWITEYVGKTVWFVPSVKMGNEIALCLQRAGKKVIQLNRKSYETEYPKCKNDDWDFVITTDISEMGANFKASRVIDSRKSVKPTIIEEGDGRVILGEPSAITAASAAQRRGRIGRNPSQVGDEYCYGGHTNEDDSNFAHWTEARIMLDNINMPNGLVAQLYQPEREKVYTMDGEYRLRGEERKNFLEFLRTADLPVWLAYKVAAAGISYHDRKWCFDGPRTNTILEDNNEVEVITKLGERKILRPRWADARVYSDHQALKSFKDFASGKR

As usually defined, the inhibition is the share of the control response that was lost under treatment. Low values mean a weak effect, high ones a strong effect. Usually CC50 stands for the concentration that lowers cell viability or growth by half. Read a low CC50 as greater toxicity to the cells. As a reminder, the IC50 is the concentration at which inhibition is half-maximal. One may read the Ki as a measure of affinity in units of concentration, obtained from inhibition or displacement. As to `CN([C@@H](Cc1ccc(C(=N)N)cc1)C(=O)N[C@@H](CCCCN)C(=O)N[C@@H](C(N)=O)c1ccc(OCc2ccccc2)cc1)S(=O)(=O)c1ccccc1`, the inhibition was 99% in data set [1], 22% against Trypsin [4], 22.9% in data set [5] and 68.9% in data set [6]. In data set [2], this compound had a CC50 above 200 µM. The IC50 is 0.11 µM against Genome polyprotein [3] and 22.2 µM against Genome polyprotein [8]. Also, the Ki on Genome polyprotein [7] turned out to be 0.092 µM.

As for `CN([C@@H](Cc1ccc(C(=N)N)cc1)C(=O)N[C@@H](CCCCN)C(=O)N[C@@H](C(N)=O)c1ccc(OCc2ccc(C(F)(F)F)cc2)cc1)S(=O)(=O)c1ccccc1`, the inhibition in data set [1] turned out to be 99.2%; against Trypsin [4], 18.3%; in [5], 15.8%; in data set [6], 80.4%. The compound also gave a CC50 in [2] of 75.3 µM. The IC50 against Genome polyprotein [3] was found to be 0.12 µM; against Genome polyprotein [8], 13.9 µM.

With `CN([C@@H](Cc1ccc(C(=N)N)cc1)C(=O)N[C@@H](CCCCN)C(=O)N[C@@H](C(N)=O)c1ccc(OCc2ccc(Cl)c(Cl)c2)cc1)S(=O)(=O)c1ccccc1`, the inhibition is 98.6% in [1], 11% on Trypsin [4], 15.8% in [5] and 84.8% in data set [6]. The compound further had a CC50 in data set [2] of 45.3 µM. Further, the figures for the IC50 at Genome polyprotein [3] and against Genome polyprotein [8] were 0.089 µM and 12.1 µM, respectively. The Ki on Genome polyprotein [9] was found to be 5.1 µM; at Genome polyprotein [7], 0.078 µM.

Take `CN([C@@H](Cc1ccc(C(=N)N)cc1)C(=O)N[C@@H](CCCCN)C(=O)N[C@@H](C(N)=O)c1ccccc1)S(=O)(=O)c1ccccc1`: the Stability entry (in data set [10]; on Trypsin [11]) was “Stable” throughout. Also, the inhibition was 98.9% in [1], 19.2% at Trypsin [4], 19.6% in data set [5] and 48.7% in data set [6]. This compound also came in with a CC50 in data set [2] above 200 µM. The compound also returned an IC50 against Genome polyprotein [3] of 0.21 µM. Further, the remaining at 2 h in data set [12] came out at 100%.

In the case of `CN([C@@H](Cc1ccc(NC(=N)N)cc1)C(=O)N[C@@H](CCCCN)C(=O)N[C@@H](C(N)=O)c1ccccc1)S(=O)(=O)c1ccccc1`, the Stability entry (in [10]; at Trypsin [11]; in data set [13]) was “Stable” each time. In addition, the inhibition in data set [1] was 97.6%; at Trypsin [4] it was 17.1%; in data set [5] it was below 10%; in data set [6], 14.9%. Also, the CC50 in data set [2] is above 50 µM. The IC50 at Genome polyprotein [3] came out at 2.72 µM.
